According to ChEMBL document CHEMBL1201862, “PubChem BioAssay data set” (2004):
Values joined by “and” are separate entries in the source; they are usually repeats but may differ in a detail not shown here. Equal entries are not always repeated.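 Cultured in 96-well plates, cells were exposed to test compound for 48 hours across five concentrations. GI50 marks 50% less growth.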 Active and inactive are the calls of the source. Rule as the data show it: active = GI50 up to about 1.1 µM and inactive = higher.

Columns and labels:
Test in all cases: NCI-60 cell line screen, 48 h
SK-OV-3 = test system: SK-OV-3
HCT-116 = test system: HCT-116
NCI-H23 = test system: NCI-H23
SF-268 = test system: SF-268
IGROV-1 = test system: IGROV-1
SW-620 = test system: SW-620
NCI-H522 = test system: NCI-H522
RPMI-8226 = test system: RPMI-8226
UACC-257 = test system: UACC-257
M14 = test system: M14
SF-539 = test system: SF-539
NCI-H226 = test system: NCI-H226
UO-31 = test system: UO-31
786-0 = test system: 786-0
A498 = test system: A498
SNB-19 = test system: SNB-19
RXF 631 = test system: RXF 631
TK-10 = test system: TK-10
KM-20L2 = test system: KM-20L2
SK-MEL-28 = test system: SK-MEL-28
KM12 = test system: KM12
A549 = test system: A549
SR = test system: SR
HT-29 = test system: HT-29
SNB-78 = test system: SNB-78
CAKI-1 = test system: CAKI-1
OVCAR-3 = test system: OVCAR-3
NCI-H460 = test system: NCI-H460
UACC-62 = test system: UACC-62
ACHN = test system: ACHN
SF-295 = test system: SF-295
Malme-3M = test system: Malme-3M
OVCAR-5 = test system: OVCAR-5
M19-MEL = test system: M19-MEL
HCC 2998 = test system: HCC 2998
SN12C = test system: SN12C
OVCAR-4 = test system: OVCAR-4
LOX IMVI = test system: LOX IMVI
SNB-75 = test system: SNB-75
U-251 = test system: U-251
OVCAR-8 = test system: OVCAR-8
HL-60 = test system: HL-60
K562 = test system: K562
LXFL 529 = test system: LXFL 529

Measured: GI50

Clc1ccc2c(c1)[nH]c1c2nc2ccccn21
inactive: SK-OV-3 30.3 µM | HCT-116 21.2 µM | NCI-H23 24.7 µM | SF-268 28.6 µM | IGROV-1 30.8 µM | SW-620 18.5 µM | NCI-H522 19.5 µM | RPMI-8226 23.7 µM | UACC-257 29.2 µM | M14 24.7 µM | SF-539 22.6 µM | NCI-H226 22.4 µM | UO-31 19.5 µM | 786-0 22.1 µM | A498 27.1 µM | SNB-19 22.4 µM | RXF 631 43 µM | TK-10 > 10 µM | KM-20L2 27.9 µM | SK-MEL-28 21.3 µM | KM12 19.3 µM | A549 50.1 µM | SR 25.1 µM | HT-29 21.9 µM | SNB-78 24 µM

CC1OC(n2ncc(=O)[nH]c2=O)C=CC1=O (stereo not given)
inactive: CAKI-1 > 100 µM | OVCAR-3 95.3 µM | HCT-116 30.4 µM and 55.8 µM | NCI-H460 > 100 µM and 63.1 µM | UACC-62 31.8 µM and 60.4 µM | ACHN 27.9 µM and 37.9 µM | SF-295 52.6 µM | IGROV-1 > 100 µM | Malme-3M 22.1 µM and 18.8 µM | NCI-H522 20 µM and 18.8 µM | RPMI-8226 33 µM and 24.3 µM | OVCAR-5 > 100 µM | SF-539 40.2 µM and 24.2 µM | NCI-H226 > 100 µM | UO-31 > 100 µM | M19-MEL 50.8 µM and 71.3 µM | HCC 2998 > 100 µM | 786-0 36.3 µM and 55.2 µM | SN12C 70.3 µM and 35.8 µM | OVCAR-4 > 100 µM | RXF 631 13.1 µM and 16.4 µM | TK-10 > 100 µM and 71.4 µM | LOX IMVI > 100 µM | SNB-75 44.5 µM and 55.5 µM | U-251 50.7 µM and 41.2 µM | OVCAR-8 37.3 µM and 41.1 µM | HL-60 26.2 µM and 23.7 µM | SK-MEL-28 31.9 µM and 21.8 µM | K562 33.1 µM and 44 µM | KM12 46.1 µM and 63 µM | A549 > 100 µM | SR 26.7 µM and 33.5 µM | HT-29 41.8 µM and 52.6 µM | SNB-78 21.5 µM and 26.9 µM | LXFL 529 > 100 µM and 59 µM
